Measurements reported in patent publication US20050049299A1, “Selective inhibitors of stat-3 activation and uses thereof” (priority 2003, published 2005).

How the values were obtained:
Format in all cases: cell-based, human
STAT1 phosphorylation = assay: IFN-α-inducible STAT1 phosphorylation in U266 cells (Western blot); conditions: 50 μM curcumin, IFN-α 10 ng/ml
Protocol: (§1) U266 cells (2×10^6) were treated with the indicated concentrations of curcumin for 1 h, or treated with 50 μM curcumin for the indicated durations and levels of phosphorylated-STAT3 (upper panel) and STAT3 (lower panel) were examined in whole cell extracts by Western Blotting. […] U266 cells (2×10^6) were treated with 50 μM curcumin for indicated durations, and examined for phosphorylated and nonphosphorylated-STAT3, and STAT5. […] U266 cells (2×10^6) were preincubated with curcumin (50 μM) for indicated durations before treatment with IFN-α (10 ng/ml) for additional 30 min and then examined for phosphorylated and nonphosphorylated-STAT1.
For detection of STAT proteins, whole-cell extracts were prepared by lysing the curcumin-treated cells in lysis buffer (20 mM Tris, pH 7.4, 250 mM NaCl, 2 mM EDTA, pH 8.0, 0.1% Triton-X100, 0.01 mg/ml aprotinin, 0.005 mg/ml leupeptin, 0.4 mM PMSF, and 4 mM NaVO4). Lysates were then spun at 14000 rpm for 10 min to remove insoluble material, and resolved on a 7.5% gel. After electrophoresis, the proteins were electrotransferred to a nitrocellulose membrane, blocked with 5% nonfat milk, and probed with anti-STAT antibodies (1:1000) overnight at 4° C. The blot was washed, exposed to HRP-conjugated secondary antibodies for 1 h, and finally examined by chemiluminescence (ECL, Amersham Pharmacia Biotech. Arlington Heights, Ill.). […]

STAT3 phosphorylation [1] = assay: Phosphorylated STAT3 in HNSCC cells (immunocytochemistry, horseradish peroxidase stain); conditions: 50 μM, 2 hrs
Protocol: MDA 1986LN, MDA 686LN and JMAR cells were incubated with either media alone or with curcumin (50 μM) for 2 hrs and then analyzed by immunocytochemistry using Alexa fluorochrome for the distribution of STAT3 (original magnification ×200). […] The same procedure as mentioned above was performed on the same cells and the p-STAT3 analyzed by immunocytochemistry using horse radish peroxidase stain (original magnification ×200).
To further confirm that curcumin inhibited STAT3 phosphorylation, the same curcumin-treated and untreated cells were analyzed for phosphorylated STAT3 by immunocytochemistry using horseradish peroxidase stain. […] These findings confirmed that curcumin inhibited STAT3 phosphorylation.

STAT3 phosphorylation [2] = assay: Constitutive STAT3 phosphorylation in U266 cells (Western blot)
Protocol: as §1
U266 cells (2×10^6 cells) were treated with 50 μM curcumin for the indicated durations (left panels) or treated for 1 h and washed with PBS two times to remove curcumin before resuspending in fresh medium. Cells were removed at indicated times and lysed to prepare the whole cell extract (right panels). Thirty micrograms of whole cell extracts were resolved on 7.5% SDS-PAGE, electrotransferred to a nitrocellulose membrane, probed for the phosphorylated-STAT3 (upper panels) and stripped and reprobed for STAT3 (middle panels) and β-actin (lower panels).
Thirty micrograms of whole-cell extract was resolved on 7.5% SDS-PAGE, electrotransferred to a nitrocellulose membrane, probed for the phospho-STAT3 (upper panel), stripped, and reprobed for STAT3 (middle panel) and β-actin (lower panel).
For detection of STAT proteins, whole-cell extracts were prepared by lysing the curcumin-treated cells in lysis buffer (20 mM Tris, pH 7.4, 250 mM NaCl, 2 mM EDTA, pH 8.0, 0.1% Triton-X100, 0.01 mg/ml aprotinin, 0.005 mg/ml leupeptin, 0.4 mM PMSF, and 4 mM NaVO4). Lysates were then spun at 14000 rpm for 10 min to remove insoluble material, and resolved on a 7.5% gel. After electrophoresis, the proteins were electrotransferred to a nitrocellulose membrane, blocked with 5% nonfat milk, and probed with anti-STAT antibodies (1:1000) overnight at 4° C. The blot was washed, exposed to HRP-conjugated secondary antibodies for 1 h, and finally examined by chemiluminescence (ECL, Amersham Pharmacia Biotech. Arlington Heights, Ill.).
Whether curcumin inhibits the constitutive STAT3 phosphorylation in U266 was investigated. U266 cells were incubated either with different concentrations of curcumin for 1 h or with 50 μM curcumin for different times. Curcumin inhibited the constitutively active STAT3 in a dose-(FIG. 1A) and time-(FIG. 1B) dependent manner. Curcumin-induced inhibition could be observed as early as 10 min and with a concentration as low as 10 μM.
Whether curcumin-induced inhibition of STAT3 phosphorylation was reversible was further examined. U266 cells were first treated for 60 min with curcumin, and then the cells were washed twice with PBS to remove curcumin. The cells were then cultured in the fresh medium for various durations, and the levels of phosphorylated STAT3 were measured.
In comparison, treatment of cells with 50 μM curcumin for 60 minutes was sufficient to inhibit STAT3 phosphorylation (see FIGS. 1A and 1B).

Structure (SMILES): COc1cc(/C=C/C(=O)CC(=O)/C=C/c2ccc(O)c(OC)c2)ccc1O [curcumin, diferuloylmethane]
- IFN-α-induced STAT1 phosphorylation (STAT1 phosphorylation): suppressed the phosphorylation in a time-dependent manner
- phosphorylation of STAT3 (immunocytochemistry) (STAT3 phosphorylation [1]; JMAR cells): no inhibition of STAT3 phosphorylation was observed
- phosphorylation of STAT3 (immunocytochemistry) (STAT3 phosphorylation [1]; MDA 1986LN and MDA 686LN cells): inhibited the phosphorylation of STAT3
- dose needed to suppress STAT3 phosphorylation (comparison AG490 vs curcumin) (STAT3 phosphorylation [2]): 10 µM
- earliest time at which inhibition of constitutive STAT3 phosphorylation could be observed (STAT3 phosphorylation [2]; U266 cells, 50 μM curcumin): 10 min
- treatment time sufficient to inhibit STAT3 phosphorylation (STAT3 phosphorylation [2]; U266 cells, 50 μM curcumin): 60 min
- inhibition of constitutive STAT3 phosphorylation (STAT3 phosphorylation [2]; U266 cells, 50 μM, 1 h): completely inhibited
- lowest concentration at which inhibition of constitutive STAT3 phosphorylation could be observed (STAT3 phosphorylation [2]; U266 cells, 1 h): 10 µM
- time to complete reversal of STAT3 phosphorylation inhibition after removal of curcumin (STAT3 phosphorylation [2]; U266 cells, 60 min treatment then washed): ≤ 24 h
- overall expression of STAT3 protein (STAT3 phosphorylation [2]; U266 cells, curcumin treatment): did not alter the overall expression of STAT3 protein
- exposure needed to suppress STAT3 phosphorylation (comparison AG490 vs curcumin) (STAT3 phosphorylation [2]; curcumin): 30 min
